{
  "source": "patent US20190365675A1",
  "about": "“COMPOSITIONS FOR THE PREVENTION AND/OR TREATMENT OF ALCOHOL USE DISORDERS” (SERVICIO ANDALUZ DE SALUD, priority 2016, published 2019)",
  "key": {"iNOS": {"tested_on": "iNOS", "experiment": "iNOS mRNA in frontal cortex after ethanol intoxication", "type": "in vivo, Wistar rats", "details": "OEA pre-treatment", "experimental": "The animals were treated with intragastric (i.g.) ethanol 3 times a day using an i.g. cannula (16G needle, Fisher Scientific, Waltham, Mass., USA), following a protocol based on a slightly modified standard 4-day alcohol intoxication pattern (Bernier et al., 2002a, b) (FIG. 1A). The ethanol doses were administered every 8 h for a total time of 4 days. The rats treated with ethanol received an initial loading dose of 5 g/kg of ethanol in a 30% solution (w/v) and then a maximum maintenance dose of 3 g/kg, which were determined based on blood ethanol levels (BEL). This repeated standard alcohol intoxication paradigm kept BEL intoxication relatively constant in a range of sedation/ataxia (190 to 430 mg/dl, Table 3), according to the 6-point alcohol intoxication behavior scale (Majchrowicz, 1975). The mean dose of ethanol/rat/day (days 1-4) was 7.06 g/kg, similar to other studies (Obernier et al., 2002a, b). OEA (5 mg/kg, i.p., except initial dose of 10 mg/kg i.p.; synthesized as described in Giuffrida et al., 2000) was dissolved in the vehicle (5% Tween-80 in saline solution) and injected 10 minutes before each of the administrations of ethanol by an intragastric gavage. […] The quantitative changes in mRNA levels were estimated by means of RT-PCR, carried out in the presence of the SYBR green primer using a 20-L reaction in a Rotor-Gene (Corbett Research®, Mortlake, NSW, Australia). […]"}, "HMGB1": {"tested_on": "HMGB1", "experiment": "HMGB1 levels (ELISA) and nuclear/cytoplasmic ratio (Western blot) in frontal cortex after ethanol intoxication", "type": "in vivo, Wistar rats", "experimental": "The animals were treated with intragastric (i.g.) ethanol 3 times a day using an i.g. cannula (16G needle, Fisher Scientific, Waltham, Mass., USA), following a protocol based on a slightly modified standard 4-day alcohol intoxication pattern (Bernier et al., 2002a, b) (FIG. 1A). The ethanol doses were administered every 8 h for a total time of 4 days. The rats treated with ethanol received an initial loading dose of 5 g/kg of ethanol in a 30% solution (w/v) and then a maximum maintenance dose of 3 g/kg, which were determined based on blood ethanol levels (BEL). This repeated standard alcohol intoxication paradigm kept BEL intoxication relatively constant in a range of sedation/ataxia (190 to 430 mg/dl, Table 3), according to the 6-point alcohol intoxication behavior scale (Majchrowicz, 1975). […] The autoradiograph was quantified by densitometry (NIH ImageJ® software, National Biosciences, Lincoln, Nebr. USA) and expressed as optical density (OD). […] The levels of soluble HMGB1, TNF-α, IL-1β and MCP-1 were determined by means of a commercially available enzyme-linked immunosorbent assay kit (ELISA) (Elabscience Biotechnology Co., Ltd., China, for HMGB-1; RayBiotech®, GA, USA, for TNF-α, IL-1β, and MCP-1). The nuclear/cytosol HMGB1 fraction was determined by means of Western blot analysis."}},
  "data": [
    {"compound": "CCCCCCCC/C=C\\CCCCCCCC(=O)NCCO", "note": "[OEA, oleoylethanolamide]", "values": [
      {"measurement": "Ethanol-induced increase in expression of iNOS mRNA", "setting": "iNOS", "result": "entirely prevented"},
      {"measurement": "Ethanol intoxication-induced increase in HMGB1 (ELISA)", "setting": "HMGB1; 2-4 h after last ethanol, OEA 5 mg/kg i.p. (initial 10 mg/kg) 10 min before each ethanol", "result": "prevented"},
      {"measurement": "HMGB1 n/c ratio (nuclear/cytoplasmic, Western blot)", "setting": "HMGB1; OEA + ethanol, ethanol alone 1.21, control 1.3", "result": 1.48}
    ]}
  ]
}
